The source made the active and inactive calls. The calls are words filed in the database; no cut-off is given here.
Experiments:
Escherichia coli [1] = test: Antibacterial activity against Escherichia coli ATCC 35218 at 160 uM/ml after 24 hrs by kirby-bauer method; format: functional; conditions: ATCC 35218, 24 h, read-out: IZ
Salmonella typhimurium [2] = test: Antibacterial activity against Salmonella typhimurium ATCC 23564 at 80 uM/ml after 24 hrs by kirby-bauer method; format: functional, Salmonella enterica subsp. enterica serovar Typhimurium; conditions: Salmonella enterica, ATCC 23564, 24 h; read-out: IZ
Trichoderma viride [3] = test: Antifungal activity against Trichoderma viride MTCC 1107 at 80 uM/ml after 48 hrs by paper disc diffusion method; format: functional; conditions: MTCC 1107, 48 h, read-out: IZ
Pseudomonas aeruginosa [4] = test: Antibacterial activity against Pseudomonas aeruginosa ATCC 15499 at 80 uM/ml after 24 hrs by kirby-bauer method; format: functional
Curvularia lunata [5] = test: Antifungal activity against Curvularia lunata MTCC 581 at 160 uM/ml after 48 hrs by paper disc diffusion method; format: functional; conditions: MTCC 581, 48 h, read-out: IZ
Curvularia lunata [6] = test: Antifungal activity against Curvularia lunata MTCC 581 at 40 uM/ml after 48 hrs by paper disc diffusion method; format: functional; conditions: MTCC 581, 48 h, read-out: IZ
[7] = system: Burkholderia pseudomallei; test: Antibacterial activity against Burkholderia pseudomallei NTCC 10274 at 160 uM/ml after 24 hrs by kirby-bauer method; format: functional; conditions: NTCC 10274, 24 h, read-out: IZ
[8] = system: Burkholderia pseudomallei; test: Antibacterial activity against Burkholderia pseudomallei NTCC 10274 at 40 uM/ml after 24 hrs by kirby-bauer method; format: functional
QG-56 = test: Cytotoxicity against human QG56 cells after 48 hrs by MTT assay; format: functional, cell-based
Aspergillus niger [9] = test: Antifungal activity against Aspergillus niger MTCC 1108 at 40 uM/ml after 48 hrs by paper disc diffusion method; format: functional
Salmonella typhimurium [10] = test: Antibacterial activity against Salmonella typhimurium ATCC 23564 at 20 uM/ml after 24 hrs by kirby-bauer method; format: functional; conditions: Salmonella enterica subsp. enterica serovar Typhimurium
Trichoderma viride [11] = test: Antifungal activity against Trichoderma viride MTCC 1107 at 40 uM/ml after 48 hrs by paper disc diffusion method; format: functional; conditions: MTCC 1107, 48 h, read-out: IZ
Aspergillus niger [12] = test: Antifungal activity against Aspergillus niger MTCC 1108 at 20 uM/ml after 48 hrs by paper disc diffusion method; format: functional
Pseudomonas aeruginosa [13] = test: Antibacterial activity against Pseudomonas aeruginosa ATCC 15499 at 40 uM/ml after 24 hrs by kirby-bauer method; format: functional
Trichoderma viride [14] = test: Antifungal activity against Trichoderma viride MTCC 1107 at 160 uM/ml after 48 hrs by paper disc diffusion method; format: functional; conditions: MTCC 1107, 48 h, read-out: IZ
Escherichia coli [15] = test: Antibacterial activity against Escherichia coli ATCC 35218 at 80 uM/ml after 24 hrs by kirby-bauer method; format: functional; conditions: ATCC 35218, 24 h, read-out: IZ
Pseudomonas aeruginosa [16] = test: Antibacterial activity against Pseudomonas aeruginosa ATCC 15499 at 20 uM/ml after 24 hrs by kirby-bauer method; format: functional
[17] = system: Burkholderia pseudomallei; test: Antibacterial activity against Burkholderia pseudomallei NTCC 10274 at 80 uM/ml after 24 hrs by kirby-bauer method; format: functional; conditions: NTCC 10274, 24 h, read-out: IZ
Pseudomonas aeruginosa [18] = test: Antibacterial activity against Pseudomonas aeruginosa ATCC 15499 at 160 uM/ml after 24 hrs by kirby-bauer method; format: functional; conditions: ATCC 15499, 24 h, read-out: IZ
Staphylococcus aureus = test: Antibacterial activity against Staphylococcus aureus ATCC 11632 at 160 uM/ml after 24 hrs by kirby-bauer method; format: functional
Trichoderma viride [19] = test: Antifungal activity against Trichoderma viride MTCC 1107 at 20 uM/ml after 48 hrs by paper disc diffusion method; format: functional; conditions: MTCC 1107, 48 h, read-out: IZ
Escherichia coli [20] = test: Antibacterial activity against Escherichia coli ATCC 35218 at 20 uM/ml after 24 hrs by kirby-bauer method; format: functional
Escherichia coli [21] = test: Antibacterial activity against Escherichia coli ATCC 35218 at 40 uM/ml after 24 hrs by kirby-bauer method; format: functional
Curvularia lunata [22] = test: Antifungal activity against Curvularia lunata MTCC 581 at 80 uM/ml after 48 hrs by paper disc diffusion method; format: functional; conditions: MTCC 581, 48 h, read-out: IZ
Aspergillus niger [23] = test: Antifungal activity against Aspergillus niger MTCC 1108 at 80 uM/ml after 48 hrs by paper disc diffusion method; format: functional; conditions: MTCC 1108, 48 h, read-out: IZ
Salmonella typhimurium [24] = test: Antibacterial activity against Salmonella typhimurium ATCC 23564 at 160 uM/ml after 24 hrs by kirby-bauer method; format: functional, Salmonella enterica subsp. enterica serovar Typhimurium
Curvularia lunata [25] = test: Antifungal activity against Curvularia lunata MTCC 581 at 20 uM/ml after 48 hrs by paper disc diffusion method; format: functional; conditions: MTCC 581, 48 h, read-out: IZ
[26] = system: Burkholderia pseudomallei; test: Antibacterial activity against Burkholderia pseudomallei NTCC 10274 at 20 uM/ml after 24 hrs by kirby-bauer method; format: functional
Aspergillus flavus = test: Antifungal activity against Aspergillus flavus MTCC 1021 at 160 uM/ml after 48 hrs by paper disc diffusion method; format: functional
Salmonella typhimurium [27] = test: Antibacterial activity against Salmonella typhimurium ATCC 23564 at 40 uM/ml after 24 hrs by kirby-bauer method; format: functional; conditions: Salmonella enterica subsp. enterica serovar Typhimurium
Aspergillus niger [28] = test: Antifungal activity against Aspergillus niger MTCC 1108 at 160 uM/ml after 48 hrs by paper disc diffusion method; format: functional; conditions: MTCC 1108, 48 h, read-out: IZ

Row | Compound | zone of inhibition at 160 µM (Escherichia coli [1]) [mm] | zone of inhibition at 80 µM (Trichoderma viride [3]) [mm] | zone of inhibition at 160 µM (Curvularia lunata [5]) [mm] | zone of inhibition at 40 µM (Curvularia lunata [6]) [mm] | zone of inhibition at 160 µM [7] [mm] | IC50 (QG-56) [uM/ml] | inhibition zone (IZ) (Aspergillus niger [9]) | zone of inhibition (Trichoderma viride [11]) [mm] | inhibition zone (IZ) (Aspergillus niger [12]) | zone of inhibition at 160 µM (Trichoderma viride [14]) [mm] | zone of inhibition at 80 µM (Escherichia coli [15]) [mm] | zone of inhibition at 80 µM [17] [mm] | zone of inhibition at 160 µM (Pseudomonas aeruginosa [18]) [mm] | IC50 (HCT-116) [uM/ml] | inhibition zone (IZ) (Staphylococcus aureus) | zone of inhibition at 20 µM (Trichoderma viride [19]) [mm] | inhibition zone (IZ) (Escherichia coli [20]) | inhibition zone (IZ) (Escherichia coli [21]) | zone of inhibition at 80 µM (Curvularia lunata [22]) [mm] | IC50 (HepG2) [uM/ml] | further results
1 | COc1cc(/C=C/C(=O)C2=C(/C=C/c3ccc(O)c(OC)c3)NC(=O)NC2c2ccc(C)cc2)ccc1O (stereo unspecified) | 11 | 16 | 22 | 16 | 10 | 100 | inactive | 15 | inactive | 18 | 9 | 9 | 10 | 50 | inactive | 12 | inactive | inactive | 18 | 50 | zone of inhibition at 80 µM (Salmonella typhimurium [2]): 9 mm; inhibition zone (IZ) (Pseudomonas aeruginosa [4]): inactive; inhibition zone (IZ) [8]: inactive; inhibition zone (IZ) (Salmonella typhimurium [10]): inactive; inhibition zone (IZ) (Pseudomonas aeruginosa [13]): inactive; inhibition zone (IZ) (Pseudomonas aeruginosa [16]): inactive; zone of inhibition at 80 µM (Aspergillus niger [23]): 9 mm; zone of inhibition at 160 µM (Salmonella typhimurium [24]; Salmonella enterica, ATCC 23564, 24 h, read-out: IZ): 11 mm; zone of inhibition at 20 µM (Curvularia lunata [25]): 12 mm; inhibition zone (IZ) [26]: inactive; inhibition zone (IZ) (Aspergillus flavus): inactive; inhibition zone (IZ) (Salmonella typhimurium [27]): inactive; zone of inhibition at 160 µM (Aspergillus niger [28]): 12 mm
2 | COc1cccc2c1C(=O)c1c(O)c3c(c(O)c1C2=O)C[C@@](O)(C(=O)CO)C[C@@H]3O[C@H]1C[C@H](N)[C@H](O)[C@H](C)O1 [DOXORUBICIN] | – | – | – | – | – | 2.5 | – | – | – | – | – | – | – | 5 | – | – | – | – | – | 2.5 | –
3 | COc1ccc(C2NC(=O)NC(/C=C/c3ccc(O)c(OC)c3)=C2C(=O)/C=C/c2ccc(O)c(OC)c2)cc1 (stereo unspecified) | 12 | 17 | 17 | 14 | 23 | 50 | inactive | 16 | inactive | 19 | 9 | 19 | 23 | 100 | inactive | 14 | inactive | inactive | 16 | 50 | zone of inhibition at 80 µM (Pseudomonas aeruginosa [4]; ATCC 15499, 24 h, read-out: IZ): 21 mm; zone of inhibition at 40 µM ([8]; NTCC 10274, 24 h, read-out: IZ): 15 mm; zone of inhibition at 40 µM (Pseudomonas aeruginosa [13]; ATCC 15499, 24 h, read-out: IZ): 19 mm; zone of inhibition at 20 µM (Pseudomonas aeruginosa [16]; ATCC 15499, 24 h, read-out: IZ): 13 mm; zone of inhibition at 80 µM (Aspergillus niger [23]): 9 mm; inhibition zone (IZ) (Salmonella typhimurium [24]; Salmonella enterica subsp. enterica serovar Typhimurium): inactive; zone of inhibition at 20 µM (Curvularia lunata [25]): 11 mm; zone of inhibition at 20 µM ([26]; NTCC 10274, 24 h, read-out: IZ): 11 mm; inhibition zone (IZ) (Aspergillus flavus): inactive; zone of inhibition at 160 µM (Aspergillus niger [28]): 11 mm

Reference: ChEMBL document CHEMBL2016493, “Design, synthesis, synergistic antimicrobial activity and cytotoxicity of 4-aryl substituted 3,4-dihydropyrimidinones of curcumin” (Bioorg Med Chem Lett, 2012)
